Our source for the Kd values is PMC6959561, “Expression of acyl-CoA-binding protein 5 from Rhodnius prolixus and its inhibition by RNA interference” (PLoS ONE, 2020).

The assay deals with T1, RpACBP-5 (acyl-CoA-binding protein 5) (Rhodnius prolixus, UniProt M4WG04).
T1 construct: recombinant RpACBP-5 expressed in E. coli BL21 (DE3) (GenBank KC417418; 261 bp)
Description: isothermal titration calorimetry (VP-ITC, […]°C, pH […]). For orientation: Isothermal titration calorimetry measures the heat released or taken up as one component is titrated into another.

As usually defined, the Kd is the concentration at which binding is half-saturated.

T1 sequence (M4WG04 entry or part of it): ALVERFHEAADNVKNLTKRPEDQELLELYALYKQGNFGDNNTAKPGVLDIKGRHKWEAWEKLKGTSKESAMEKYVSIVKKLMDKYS

The compound `CCCCCCCCCCCC(=O)SCCNC(=O)CCNC(=O)[C@H](O)C(C)(C)COP(=O)(O)OP(=O)(O)OC[C@H]1O[C@@H](n2cnc3c(N)ncnc32)[C@H](O)[C@@H]1OP(=O)(O)O` [lauroyl-CoA] yielded an equilibrium dissociation constant (Kd) of 399 ± 266 nM.
